Results taken from PMC6582486, “Stapled EGFR peptide reduces inflammatory breast cancer and inhibits additional HER-driven models of cancer” (Journal of Translational Medicine, 2019).
Where a SMILES comes first, the peptide text is derived from it. Bridges are numbered along the chain shown (N, C = ends). [ ]: non-standard residue; d: D form. R8 = C=CCCCCCC[C@@](C)(N)C(=O)O; S5 = C=CCCC[C@](C)(N)C(=O)O

Assay: 28-day toxicity study: injection site reactogenicity
Type: in vivo, CD-1 mice
Conditions: for Injection site reactogenicity: Animals with Signs: 28-day study
Experimental: Toxicology was performed by IITRI. The study was conducted in compliance with the US Food and Drug Administration (FDA) good laboratory practice (GLP) Regulations (Code of Federal Regulations Title 21 Part 58) to evaluate the toxicokinetics, local tolerability, immunogenicity, and potential toxicity of SAH5-EJ1 following three times per week intravenous (IV) dosing for 28 days in mice. Male and female CD-1 IGS [Crl:CD1(ICR)] mice (135 per sex) were received from Wilmington, MA-based Charles River Laboratories, Inc.’s Kingston facility (Stone Ridge, NY).
Response measured at 6 and 24 hours post-injection.

CC[C@H](C)[C@H](NC(=O)[C@H](Cc1c[nH]cn1)NC(=O)[C@H](CCCNC(=N)N)NC(=O)[C@H](CCCNC(=N)N)NC(=O)[C@H](CCCNC(=N)N)NC(=O)[C@H](CCSC)NC(=O)[C@H](Cc1ccccc1)NC(=O)[C@H](C)NC(=O)[C@H](CCCNC(=N)N)NC(=O)[C@H](C)NC(=O)[C@H](CCC(N)=O)NC(=O)[C@H](CCCNC(=N)N)NC(=O)[C@H](C)NC(=O)[C@H](C)NC(=O)[C@H](C)NC(=O)[C@H](CCCNC(=N)N)NC(=O)[C@H](C)NC(=O)[C@@H](N)Cc1ccc(O)cc1)C(=O)N[C@H](C(=O)N[C@@H](CCCNC(=N)N)C(=O)N[C@@H](CCCCN)C(=O)N[C@@H](CCCNC(=N)N)C(=O)N[C@]1(C)CCCCCCC=CCCC[C@@](C)(C(=O)N[C@@H](CCCNC(=N)N)C(=O)N[C@@H](CCC(=O)O)C(N)=O)NC(=O)[C@H](CCC(N)=O)NC(=O)[C@H](CC(C)C)NC(=O)[C@H](CC(C)C)NC(=O)[C@H](CCCNC(=N)N)NC(=O)[C@H](CCCNC(=N)N)NC(=O)[C@H](CC(C)C)NC1=O)C(C)C [SAH5-EJ1] (H-YARAAARQARAFMRRRHIVRKR[R8]LRRLLQ[S5]RE-NH2; staple 23-30)
14: Edema: 1 - Minimal, slight swelling (animals) (female, 15 mg/kg, 15 examined) | Erythema and Eschar: 2 - Mild, bright pink/pale, distinct (animals) (female, 15 mg/kg, 15 examined) | Edema: 1 - Minimal, slight swelling (animals) (male, 15 mg/kg, 15 examined) | Edema: 2 - Mild, defined swelling (animals) (male, 15 mg/kg, 15 examined)
3: Edema: 2 - Mild, defined swelling (animals) (female, 10 mg/kg, 10 examined) | Erythema and Eschar: 1 - Minimal (animals) (male, 5 mg/kg, 10 examined)
2: Erythema and Eschar: 4 - Severe, dark red, pronounced (animals) (female, 10 mg/kg, 10 examined) | Erythema and Eschar: 2 - Mild, bright pink/pale, distinct (animals) (male, 5 mg/kg, 10 examined) | Erythema and Eschar: 4 - Severe, dark red, pronounced (animals) (male, 10 mg/kg, 10 examined) | Edema: 4 - Severe, pronounced swelling, raised border (animals) (male, 15 mg/kg, 15 examined)
8: Edema: 1 - Minimal, slight swelling (animals) (male, 10 mg/kg, 10 examined) | Erythema and Eschar: 2 - Mild, bright pink/pale, distinct (animals) (male, 10 mg/kg, 10 examined)
15: Edema (animals) (female, 15 mg/kg, 15 examined) | Edema: 0 - Normal, no swelling (animals) (female, 15 mg/kg, 15 examined) | Erythema and Eschar Formation (animals) (female, 15 mg/kg, 15 examined) | Erythema and Eschar: 0 - Normal (animals) (female, 15 mg/kg, 15 examined) | Injection site reactogenicity: Animals with Signs (female, 15 mg/kg, 15 examined) | Edema (animals) (male, 15 mg/kg, 15 examined) | Edema: 0 - Normal, no swelling (animals) (male, 15 mg/kg, 15 examined) | Erythema and Eschar Formation (animals) (male, 15 mg/kg, 15 examined) | Erythema and Eschar: 0 - Normal (animals) (male, 15 mg/kg, 15 examined) | Erythema and Eschar: 2 - Mild, bright pink/pale, distinct (animals) (male, 15 mg/kg, 15 examined) | Injection site reactogenicity: Animals with Signs (male, 15 mg/kg, 15 examined)
10: Edema (animals) (female, 5 mg/kg, 10 examined) | Edema: 0 - Normal, no swelling (animals) (female, 5 mg/kg, 10 examined) | Erythema and Eschar Formation (animals) (female, 5 mg/kg, 10 examined) | Erythema and Eschar: 0 - Normal (animals) (female, 5 mg/kg, 10 examined) | Injection site reactogenicity: Animals with Signs (female, 5 mg/kg, 10 examined) | Edema (animals) (female, 10 mg/kg, 10 examined) | Edema: 0 - Normal, no swelling (animals) (female, 10 mg/kg, 10 examined) | Edema: 1 - Minimal, slight swelling (animals) (female, 10 mg/kg, 10 examined) | Erythema and Eschar Formation (animals) (female, 10 mg/kg, 10 examined) | Erythema and Eschar: 0 - Normal (animals) (female, 10 mg/kg, 10 examined) | Erythema and Eschar: 1 - Minimal (animals) (female, 10 mg/kg, 10 examined) | Injection site reactogenicity: Animals with Signs (female, 10 mg/kg, 10 examined) | Erythema and Eschar: 1 - Minimal (animals) (female, 15 mg/kg, 15 examined) | Edema (animals) (male, 5 mg/kg, 10 examined) | Edema: 0 - Normal, no swelling (animals) (male, 5 mg/kg, 10 examined) | Erythema and Eschar Formation (animals) (male, 5 mg/kg, 10 examined) | Erythema and Eschar: 0 - Normal (animals) (male, 5 mg/kg, 10 examined) | Injection site reactogenicity: Animals with Signs (male, 5 mg/kg, 10 examined) | Edema (animals) (male, 10 mg/kg, 10 examined) | Edema: 0 - Normal, no swelling (animals) (male, 10 mg/kg, 10 examined) | Erythema and Eschar Formation (animals) (male, 10 mg/kg, 10 examined) | Erythema and Eschar: 0 - Normal (animals) (male, 10 mg/kg, 10 examined) | Injection site reactogenicity: Animals with Signs (male, 10 mg/kg, 10 examined) | Erythema and Eschar: 3 - Moderate, bright red, distinct (animals) (male, 15 mg/kg, 15 examined)
1: Erythema and Eschar: 4 - Severe, dark red, pronounced (animals) (female, 5 mg/kg, 10 examined) | Edema: 3 - Moderate, defined swelling, raised border (animals) (female, 15 mg/kg, 15 examined) | Erythema and Eschar: 4 - Severe, dark red, pronounced (animals) (male, 5 mg/kg, 10 examined) | Edema: 3 - Moderate, defined swelling, raised border (animals) (male, 10 mg/kg, 10 examined) | Edema: 4 - Severe, pronounced swelling, raised border (animals) (male, 10 mg/kg, 10 examined)
6: Erythema and Eschar: 4 - Severe, dark red, pronounced (animals) (female, 15 mg/kg, 15 examined) | Erythema and Eschar: 1 - Minimal (animals) (male, 10 mg/kg, 10 examined) | Erythema and Eschar: 4 - Severe, dark red, pronounced (animals) (male, 15 mg/kg, 15 examined)
0: Edema: 2 - Mild, defined swelling (animals) (female, 5 mg/kg, 10 examined) | Edema: 3 - Moderate, defined swelling, raised border (animals) (female, 5 mg/kg, 10 examined) | Erythema and Eschar: 3 - Moderate, bright red, distinct (animals) (female, 5 mg/kg, 10 examined) | Edema: 3 - Moderate, defined swelling, raised border (animals) (female, 10 mg/kg, 10 examined) | Edema: 2 - Mild, defined swelling (animals) (male, 5 mg/kg, 10 examined) | Edema: 3 - Moderate, defined swelling, raised border (animals) (male, 5 mg/kg, 10 examined) | Edema: 4 - Severe, pronounced swelling, raised border (animals) (male, 5 mg/kg, 10 examined) | Erythema and Eschar: 3 - Moderate, bright red, distinct (animals) (male, 5 mg/kg, 10 examined)
4: Erythema and Eschar: 1 - Minimal (animals) (female, 5 mg/kg, 10 examined) | Erythema and Eschar: 2 - Mild, bright pink/pale, distinct (animals) (female, 5 mg/kg, 10 examined) | Erythema and Eschar: 3 - Moderate, bright red, distinct (animals) (male, 10 mg/kg, 10 examined)
5: Edema: 1 - Minimal, slight swelling (animals) (female, 5 mg/kg, 10 examined) | Erythema and Eschar: 3 - Moderate, bright red, distinct (animals) (female, 10 mg/kg, 10 examined) | Erythema and Eschar: 3 - Moderate, bright red, distinct (animals) (female, 15 mg/kg, 15 examined)
11: Erythema and Eschar: 1 - Minimal (animals) (male, 15 mg/kg, 15 examined)
12: Edema: 2 - Mild, defined swelling (animals) (female, 15 mg/kg, 15 examined)
7: Erythema and Eschar: 2 - Mild, bright pink/pale, distinct (animals) (female, 10 mg/kg, 10 examined) | Edema: 1 - Minimal, slight swelling (animals) (male, 5 mg/kg, 10 examined) | Edema: 2 - Mild, defined swelling (animals) (male, 10 mg/kg, 10 examined) | Edema: 3 - Moderate, defined swelling, raised border (animals) (male, 15 mg/kg, 15 examined)
